# Data as given in patent US6737383B1, “Herbicidal oxadiazolidines” (priority 1999, dated 2004).
# Columns and labels:
# bamyardgrass = experiment: Test B flood test barnyardgrass; assay type: in vivo, Echinochloa crus-galli
# Summary of the method: (§1)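 Read-out is a visual response score from 0 (no effect) to 10 (complete control), assigned by comparison with untreated controls. Treatment was applied at the 2-leaf stage, and plants stayed in the greenhouse for twelve to sixteen days before scoring.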
# duck salad = experiment: Test B flood test duck salad; assay type: in vivo, Heteranthera limosa
# Summary of the method: as §1
# morningglory = experiment: Test B pre/postemergence morningglory; assay type: in vivo, Ipomoea hederacea; conditions: for Morningglory plant response rating: scale of 0 to 10 where 0 is no effect and 10 is complete control
# Summary of the method: (§2)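 Herbicidal effect was estimated by eye on a ten-point control scale after plants spent twelve to sixteen days in a greenhouse following soil or foliar treatment. Foliar sprays targeted plants at one to four leaves; all doses were formulated in a non-phytotoxic solvent with surfactant.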
# rape = experiment: Test B pre/postemergence rape; assay type: in vivo, Brassica napus; conditions: for Rape plant response rating: scale of 0 to 10 where 0 is no effect and 10 is complete control
# Summary of the method: as §2
# surinam grass = experiment: Test B pre/postemergence surinam grass; assay type: in vivo, Brachiaria decumbens
# Summary of the method: as §2
# crabgrass = experiment: Test B pre/postemergence crabgrass; assay type: in vivo, Digitaria sanguinalis; conditions: for Crabgrass plant response rating: scale of 0 to 10 where 0 is no effect and 10 is complete control
# Summary of the method: as §2
# smallflower flatsedge = experiment: Test B flood test smallflower flatsedge; assay type: in vivo, Cyperus difformis
# Summary of the method: as §1
# rice = experiment: Test B flood test rice; assay type: in vivo, Oryza sativa
# Summary of the method: as §1
# wild oat = experiment: Test B pre/postemergence wild oat; assay type: in vivo, Avena fatua; conditions: for Wild oats plant response rating: scale of 0 to 10 where 0 is no effect and 10 is complete control
# Summary of the method: as §2
# soybean = experiment: Test B pre/postemergence soybean; assay type: in vivo, Glycine max; conditions: for Soybean plant response rating: scale of 0 to 10 where 0 is no effect and 10 is complete control
# Summary of the method: as §2
# pigweed = experiment: Test B pre/postemergence pigweed; assay type: in vivo, Amaranthus retroflexus; conditions: for Redroot pigweed plant response rating: scale of 0 to 10 where 0 is no effect and 10 is complete control
# Summary of the method: as §2
# corn = experiment: Test B pre/postemergence corn; assay type: in vivo, Zea mays; conditions: for Corn plant response rating: scale of 0 to 10 where 0 is no effect and 10 is complete control
# Summary of the method: as §2
# cocklebur = experiment: Test B pre/postemergence cocklebur; assay type: in vivo, Xanthium strumarium; conditions: for Cocklebur plant response rating: scale of 0 to 10 where 0 is no effect and 10 is complete control
# Summary of the method: as §2
# bedstraw = experiment: Test B pre/postemergence bedstraw; assay type: in vivo, Galium aparine
# Summary of the method: as §2
# velvetleaf = experiment: Test B pre/postemergence velvetleaf; assay type: in vivo, Abutilon theophrasti; conditions: for Velvetleaf plant response rating: scale of 0 to 10 where 0 is no effect and 10 is complete control
# Summary of the method: as §2
# sugar beet = experiment: Test B pre/postemergence sugar beet; assay type: in vivo, Beta vulgaris; conditions: for Sugarbeets plant response rating: scale of 0 to 10 where 0 is no effect and 10 is complete control
# Summary of the method: as §2
# [1] = Postemergence (flood test), Rate 125 g/ha, scale 0 to 10, 0 is no effect, 10 is complete control
# [2] = Rate 62 g/ha, Postemergence (flood test species), scale of 0 to 10 where 0 is no effect and 10 is complete control
# [3] = Rate 500 g/ha, listed under Postemergence (flood test species), scale 0 to 10, 0 no effect, 10 complete control
# [4] = Postemergence, Rate 125 g/ha, scale 0 to 10, 0 is no effect, 10 is complete control
# [5] = Preemergence, Rate 62 g/ha, scale 0 to 10 (0 no effect, 10 complete control)
# [6] = Rate 500 g/ha, Postemergence, scale 0 to 10, 0 no effect, 10 complete control
# [7] = Preemergence, Rate 250 g/ha, scale of 0 to 10 where 0 is no effect and 10 is complete control
# [8] = Rate 62 g/ha, Postemergence, scale of 0 to 10 where 0 is no effect and 10 is complete control
# [9] = Rate 250 g/ha, Postemergence, scale of 0 to 10 where 0 is no effect and 10 is complete control
smiles,measurement,setting,value
CC(C)N(C(=O)n1oc(=O)n(C2CCCCCC2)c1=O)c1ccc(F)cc1F [Compound 342],"Plant response rating, Barnyardgrass",bamyardgrass; [1],2
same,Barnyardgrass plant response rating,bamyardgrass; [2],0
same,"Plant response rating, Barnyardgrass","bamyardgrass; Rate 250 g/ha, Postemergence (flood test species), scale of 0 to 10 where 0 is no effect and 10 is complete control",9
same,"Plant response rating, Barnyardgrass",bamyardgrass; [3],9
same,"Plant response rating, Ducksalad",duck salad; [1],0
same,Ducksalad plant response rating,duck salad; [2],0
same,"Plant response rating, Ducksalad",duck salad; [3],4
same,"Plant response rating, Morningglory",morningglory; [4],7
same,"Plant response rating, Morningglory",morningglory; [5],0
same,Morningglory plant response rating (0 to 10 scale),"morningglory; Preemergence, Rate 125 g/ha",0
same,Morningglory plant response rating,"morningglory; Preemergence, Rate 250 g/ha",0
same,Morningglory plant response rating,"morningglory; Preemergence, Rate 500 g/ha",0
same,Morningglory plant response rating,"morningglory; Rate 62 g/ha, Postemergence",7
same,"Plant response rating, Morningglory",morningglory; [6],9
same,"Plant response rating, Rape",rape; [4],0
same,"Plant response rating, Rape",rape; [5],0
same,Rape plant response rating (0 to 10 scale),"rape; Preemergence, Rate 125 g/ha",0
same,Rape plant response rating,"rape; Preemergence, Rate 250 g/ha",0
same,Rape plant response rating,"rape; Preemergence, Rate 500 g/ha",0
same,Rape plant response rating,"rape; Rate 62 g/ha, Postemergence",0
same,"Plant response rating, Rape",rape; [6],4
same,"Plant response rating, B. signalgrass",surinam grass; [4],0
same,"Plant response rating, B. signalgrass",surinam grass; [5],0
same,"B. signalgrass plant response rating (0 to 10 scale, 0 is no effect, 10 is complete control)","surinam grass; Preemergence, Rate 125 g/ha",0
same,B. signalgrass plant response rating,surinam grass; [7],2
same,B. signalgrass plant response rating,"surinam grass; Preemergence, Rate 500 g/ha, scale of 0 to 10 where 0 is no effect and 10 is complete control",6
same,B. signalgrass plant response rating,surinam grass; [8],0
same,"Plant response rating, B. signalgrass",surinam grass; [9],0
same,"Plant response rating, B. signalgrass",surinam grass; [6],1
same,"Plant response rating, Crabgrass",crabgrass; [4],0
same,"Plant response rating, Crabgrass",crabgrass; [5],4
same,Crabgrass plant response rating (0 to 10 scale),"crabgrass; Preemergence, Rate 125 g/ha",6
same,Crabgrass plant response rating,"crabgrass; Preemergence, Rate 250 g/ha",9
same,Crabgrass plant response rating,"crabgrass; Preemergence, Rate 500 g/ha",9
same,Crabgrass plant response rating,"crabgrass; Rate 62 g/ha, Postemergence",0
same,"Plant response rating, Crabgrass",crabgrass; [6],3
same,"Plant response rating, S. Flatsedge",smallflower flatsedge; [1],4
same,S. Flatsedge plant response rating,smallflower flatsedge; [2],0
same,"Plant response rating, Rice",rice; [1],0
same,Rice plant response rating,rice; [2],0
same,"Plant response rating, Rice",rice; [3],0
same,"Plant response rating, Wild oats",wild oat; [4],0
same,"Plant response rating, Wild oats",wild oat; [5],0
same,Wild oats plant response rating (0 to 10 scale),"wild oat; Preemergence, Rate 125 g/ha",0
same,Wild oats plant response rating,"wild oat; Preemergence, Rate 250 g/ha",0
same,Wild oats plant response rating,"wild oat; Preemergence, Rate 500 g/ha",4
same,Wild oats plant response rating,"wild oat; Rate 62 g/ha, Postemergence",0
same,"Plant response rating, Wild oats",wild oat; [6],0
same,"Plant response rating, Soybean",soybean; [4],5
same,"Plant response rating, Soybean",soybean; [5],0
same,Soybean plant response rating (0 to 10 scale),"soybean; Preemergence, Rate 125 g/ha",0
same,Soybean plant response rating,"soybean; Preemergence, Rate 250 g/ha",0
same,Soybean plant response rating,"soybean; Preemergence, Rate 500 g/ha",0
same,Soybean plant response rating,"soybean; Rate 62 g/ha, Postemergence",3
same,"Plant response rating, Soybean",soybean; [6],7
same,"Plant response rating, Redroot pigweed",pigweed; [4],2
same,"Plant response rating, Redroot pigweed",pigweed; [5],0
same,Redroot pigweed plant response rating (0 to 10 scale),"pigweed; Preemergence, Rate 125 g/ha",0
same,Redroot pigweed plant response rating,"pigweed; Preemergence, Rate 250 g/ha",0
same,Redroot pigweed plant response rating,"pigweed; Preemergence, Rate 500 g/ha",0
same,Redroot pigweed plant response rating,"pigweed; Rate 62 g/ha, Postemergence",2
same,"Plant response rating, Redroot pigweed",pigweed; [6],8
same,"Plant response rating, Corn",corn; [4],0
same,"Plant response rating, Corn",corn; [5],0
same,Corn plant response rating (0 to 10 scale),"corn; Preemergence, Rate 125 g/ha",0
same,Corn plant response rating,"corn; Preemergence, Rate 250 g/ha",0
same,Corn plant response rating,"corn; Preemergence, Rate 500 g/ha",0
same,Corn plant response rating,"corn; Rate 62 g/ha, Postemergence",0
same,"Plant response rating, Corn",corn; [6],0
same,"Plant response rating, Cocklebur",cocklebur; [4],0
same,"Plant response rating, Cocklebur",cocklebur; [5],0
same,Cocklebur plant response rating (0 to 10 scale),"cocklebur; Preemergence, Rate 125 g/ha",0
same,Cocklebur plant response rating,"cocklebur; Preemergence, Rate 500 g/ha",0
same,Cocklebur plant response rating,"cocklebur; Rate 62 g/ha, Postemergence",0
same,"Plant response rating, Cocklebur",cocklebur; [6],0
same,"Plant response rating, Bedstraw",bedstraw; [4],5
same,"Plant response rating, Bedstraw",bedstraw; [5],0
same,Bedstraw plant response rating (0 to 10 scale),"bedstraw; Preemergence, Rate 125 g/ha",0
same,Bedstraw plant response rating,bedstraw; [7],0
same,Bedstraw plant response rating,bedstraw; [8],4
same,"Plant response rating, Bedstraw",bedstraw; [9],5
same,"Plant response rating, Bedstraw",bedstraw; [6],5
same,"Plant response rating, Velvetleaf",velvetleaf; [4],0
same,"Plant response rating, Velvetleaf",velvetleaf; [5],0
same,Velvetleaf plant response rating (0 to 10 scale),"velvetleaf; Preemergence, Rate 125 g/ha",0
same,Velvetleaf plant response rating,"velvetleaf; Preemergence, Rate 250 g/ha",0
same,Velvetleaf plant response rating,"velvetleaf; Preemergence, Rate 500 g/ha",0
same,Velvetleaf plant response rating,"velvetleaf; Rate 62 g/ha, Postemergence",0
same,"Plant response rating, Velvetleaf",velvetleaf; [6],0
same,"Plant response rating, Sugarbeets",sugar beet; [4],0
same,"Plant response rating, Sugarbeets",sugar beet; [5],0
same,Sugarbeets plant response rating (0 to 10 scale),"sugar beet; Preemergence, Rate 125 g/ha",0
same,Sugarbeets plant response rating,"sugar beet; Preemergence, Rate 250 g/ha",0
same,Sugarbeets plant response rating,"sugar beet; Preemergence, Rate 500 g/ha",0
same,Sugarbeets plant response rating,"sugar beet; Rate 62 g/ha, Postemergence",0
same,"Plant response rating, Sugarbeets",sugar beet; [6],0
